Our source for the mutagenic call values is PubChem BioAssay AID1259407 (Chemical Carcinogenesis Research Information System (CCRIS), 2018).

In this data set the test system is CCRIS mutagenicity, Ames/micronucleus/aberration tests. The data set is described as follows: CCRIS mutagenicity studies.

Calls of active or inactive are those of the source. No rule for the calls is given here.

As to `Clc1c(Cl)c(Br)c2c(c1Cl)-c1nc-2nc2[n-]c(nc3nc(nc4[n-]c(n1)c1c(Cl)c(Br)c(Cl)c(Br)c41)-c1c(Cl)c(Cl)c(Br)c(Cl)c1-3)c1c(Br)c(Cl)c(Br)c(Cl)c21.[Cu+2]`, the mutagenic call (Test System: AMES SALMONELLA TYPHIMURIUM, Strain/Indicator: TA98, Metabolic Activation: HAMSTER, LIVER, S-9, AROCLOR 1254 (10%), Method: PREINCUBATION) is “active; positive”; the mutagenic call (Test System: AMES SALMONELLA TYPHIMURIUM, Strain/Indicator: TA98, Metabolic Activation: NONE, Method: PREINCUBATION) is “inactive; negative”; the mutagenic call (Test System: AMES SALMONELLA TYPHIMURIUM, Strain/Indicator: TA98, Metabolic Activation: RAT, LIVER, S-9, AROCLOR 1254 (10%), Method: PREINCUBATION) is “active; positive”; the mutagenic call (Test System: AMES SALMONELLA TYPHIMURIUM, Strain/Indicator: TA100, Metabolic Activation: HAMSTER, LIVER, S-9, AROCLOR 1254 (10%), Method: PREINCUBATION) is “inactive; negative”; the mutagenic call (Test System: AMES SALMONELLA TYPHIMURIUM, Strain/Indicator: TA100, Metabolic Activation: NONE, Method: PREINCUBATION) was “inactive; negative”; the mutagenic call (Test System: AMES SALMONELLA TYPHIMURIUM, Strain/Indicator: TA100, Metabolic Activation: RAT, LIVER, S-9, AROCLOR 1254 (10%), Method: PREINCUBATION) was “inactive; negative”. Besides, the mutagenic call by setting is: (Test System: AMES SALMONELLA TYPHIMURIUM, Strain/Indicator: TA1535, Metabolic Activation: HAMSTER, LIVER, S-9, AROCLOR 1254 (10%), Method: PREINCUBATION) “inactive; negative”; (Test System: AMES SALMONELLA TYPHIMURIUM, Strain/Indicator: TA1535, Metabolic Activation: NONE, Method: PREINCUBATION) “inactive; negative”; (Test System: AMES SALMONELLA TYPHIMURIUM, Strain/Indicator: TA1535, Metabolic Activation: RAT, LIVER, S-9, AROCLOR 1254 (10%), Method: PREINCUBATION) “inactive; negative”; (Test System: AMES SALMONELLA TYPHIMURIUM, Strain/Indicator: TA1537, Metabolic Activation: HAMSTER, LIVER, S-9, AROCLOR 1254 (10%), Method: PREINCUBATION) “inactive; negative”; (Test System: AMES SALMONELLA TYPHIMURIUM, Strain/Indicator: TA1537, Metabolic Activation: NONE, Method: PREINCUBATION) “inactive; negative”; (Test System: AMES SALMONELLA TYPHIMURIUM, Strain/Indicator: TA1537, Metabolic Activation: RAT, LIVER, S-9, AROCLOR 1254 (10%), Method: PREINCUBATION) “active; positive”.
Turning to `COc1cc(O)c2c(=O)c(-c3ccc(O)cc3)coc2c1`, the mutagenic call (Test System: SYRIAN HAMSTER EMBRYO CELLS, Strain/Indicator: HPRT/6-THIOGUANINE, Metabolic Activation: NONE, Method: PLATE) is “inactive; negative”.
For the compound `C#C[C@]1(OC(C)=O)CC[C@H]2[C@@H]3CCC4=CC(=O)CC[C@@H]4[C@H]3CC[C@@]21C`, the mutagenic call was “inactive; negative” (Test System: AMES SALMONELLA TYPHIMURIUM, Strain/Indicator: TA97A, Metabolic Activation: NONE, Method: HOST-MEDIATED); “inactive; negative” (Test System: AMES SALMONELLA TYPHIMURIUM, Strain/Indicator: TA97A, Metabolic Activation: NONE, Method: STANDARD PLATE); “inactive; negative” (Test System: AMES SALMONELLA TYPHIMURIUM, Strain/Indicator: TA97A, Metabolic Activation: RAT, LIVER, S-9, PHENOBARBITONE, Method: PREINCUBATION); “inactive; negative” (Test System: AMES SALMONELLA TYPHIMURIUM, Strain/Indicator: TA98, Metabolic Activation: MOUSE, LIVER, S-9, Method: STANDARD PLATE); “inactive; negative” (Test System: AMES SALMONELLA TYPHIMURIUM, Strain/Indicator: TA98, Metabolic Activation: NONE, Method: HOST-MEDIATED); “inactive; negative” (Test System: AMES SALMONELLA TYPHIMURIUM, Strain/Indicator: TA98, Metabolic Activation: NONE, Method: STANDARD PLATE). Besides, the mutagenic call was “inactive; negative” (Test System: AMES SALMONELLA TYPHIMURIUM, Strain/Indicator: TA98, Metabolic Activation: RAT, LIVER, S-9, AROCLOR 1254, Method: STANDARD PLATE); “inactive; negative” (Test System: AMES SALMONELLA TYPHIMURIUM, Strain/Indicator: TA98, Metabolic Activation: RAT, LIVER, S-9, PHENOBARBITONE, Method: PREINCUBATION); “inactive; negative” (Test System: AMES SALMONELLA TYPHIMURIUM, Strain/Indicator: TA100, Metabolic Activation: MOUSE, LIVER, S-9, Method: STANDARD PLATE); “inactive; negative” (Test System: AMES SALMONELLA TYPHIMURIUM, Strain/Indicator: TA100, Metabolic Activation: NONE, Method: HOST-MEDIATED); “inactive; negative” (Test System: AMES SALMONELLA TYPHIMURIUM, Strain/Indicator: TA100, Metabolic Activation: NONE, Method: STANDARD PLATE); “inactive; negative” (Test System: AMES SALMONELLA TYPHIMURIUM, Strain/Indicator: TA100, Metabolic Activation: RAT, LIVER, S-9, AROCLOR 1254, Method: STANDARD PLATE). Besides, the mutagenic call is “inactive; negative” (Test System: AMES SALMONELLA TYPHIMURIUM, Strain/Indicator: TA100, Metabolic Activation: RAT, LIVER, S-9, PHENOBARBITONE, Method: PREINCUBATION); “inactive; negative” (Test System: AMES SALMONELLA TYPHIMURIUM, Strain/Indicator: TA1535, Metabolic Activation: MOUSE, LIVER, S-9, Method: STANDARD PLATE); “inactive; negative” (Test System: AMES SALMONELLA TYPHIMURIUM, Strain/Indicator: TA1535, Metabolic Activation: NONE, Method: HOST-MEDIATED); “inactive; negative” (Test System: AMES SALMONELLA TYPHIMURIUM, Strain/Indicator: TA1535, Metabolic Activation: NONE, Method: STANDARD PLATE); “inactive; negative” (Test System: AMES SALMONELLA TYPHIMURIUM, Strain/Indicator: TA1535, Metabolic Activation: RAT, LIVER, S-9, AROCLOR 1254, Method: STANDARD PLATE); “inactive; negative” (Test System: AMES SALMONELLA TYPHIMURIUM, Strain/Indicator: TA1535, Metabolic Activation: RAT, LIVER, S-9, PHENOBARBITONE, Method: PREINCUBATION). Moreover, the mutagenic call by setting is: (Test System: AMES SALMONELLA TYPHIMURIUM, Strain/Indicator: TA1537, Metabolic Activation: MOUSE, LIVER, S-9, Method: STANDARD PLATE) “inactive; negative”; (Test System: AMES SALMONELLA TYPHIMURIUM, Strain/Indicator: TA1537, Metabolic Activation: NONE, Method: STANDARD PLATE) “inactive; negative”; (Test System: AMES SALMONELLA TYPHIMURIUM, Strain/Indicator: TA1537, Metabolic Activation: RAT, LIVER, S-9, AROCLOR 1254, Method: STANDARD PLATE) “inactive; negative”; (Test System: AMES SALMONELLA TYPHIMURIUM, Strain/Indicator: TA1538, Metabolic Activation: MOUSE, LIVER, S-9, Method: STANDARD PLATE) “inactive; negative”; (Test System: AMES SALMONELLA TYPHIMURIUM, Strain/Indicator: TA1538, Metabolic Activation: NONE, Method: STANDARD PLATE) “inactive; negative”; (Test System: AMES SALMONELLA TYPHIMURIUM, Strain/Indicator: TA1538, Metabolic Activation: RAT, LIVER, S-9, AROCLOR 1254, Method: STANDARD PLATE) “inactive; negative”.
